# Values joined by “and” are separate entries in the source; they are usually repeats but may differ in a detail not shown here. Equal values may be shown once. Read-outs that look alike come from different tables or passages of the source.
# How the values were obtained:
# [1] = test system: HIV isolates from the patient; assay: Sensitivity of HIV isolates from the patient to antiviral compounds (p24 antigen production in co-culture with PHA-stimulated donor lymphocytes); format: cell-based, HIV-1; conditions: for IC50: mutations I135T, Q207E, T215F, K219Q, 50% inhibition of p24 antigen production, repeated experiment nos.
# Method: A standard HIV-1 isolation from fresh lymphocytes and fresh plasma was performed at several time points (two months (60 days) before the start of therapy, 1 month (30 days) and 4 months (120 days) after start of the therapy).
# Plasma or lymphocytes from the patient were co-cultured with 3·10^6 PHA stimulated (phytohemagglutinin, Sigma, St. Louis, Mo., USA) HIV-1 negative donor lymphocytes. Cultures were performed in a 5% CO2 atmosphere at 37°C. Medium was replaced every 3 to 4 days. When cell death occured, fresh PHA-stimulated donor lymphocytes were added. Every 3 to 4 days, the cultures were monitored for cytopathic effect and for the presence of HIV-1 p24 antigen in the supernatant. Cultures were followed during 5 weeks. A sample was considered positive for virus if the concentration of p24 antigen in the supernatant of the co-culture (determined by a p24 antigen capture test) exceeded 1000 pg per milliliter on a single determination or > 200 pg per milliliter on two consecutive determinations. Supernatants of positive isolates were aliquoted and frozen at -70°C.
# (§1) An aliquot of a positive isolate was co-cultured with several cultures of PHA-stimulated donor lymphocytes. Serial dilutions of the antiviral compound (α-[(2-nitrophenyl)-amino]-2,6-dichlorobenzeneacetamide (Co. I) or zidovudine) were added to the cultures. Cultures were performed in a 5% CO2 atmosphere at 37°C. Medium and drugs were replaced every 3 to 4 days. When cell death occured, fresh PHA-stimulated donor lymphocytes were added. The cultures were monitored for cytopathic effect and for the presence of p24 antigen in the supernatant. When p24 levels produced in the controls (without antiviral compound) exceeded 1000 pg per milliliter, a p24 antigen test was performed on all cultures treated with antivirals The concentration of antiviral compound that was needed to inhibit 50% of p24 antigen production of the controls, was calculated (IC50). The sensitivity of the isolates obtained from the patient was determined on several occasions at different times (experiment nos.). The nucleotide sequence of the reverse transcriptase was determined in order to identify mutations selected by exposure of the retrovirus to Co. I. The results obtained thus far are shown in table 1.
# [2] = test system: Wild-type Strain IIIB; assay: Sensitivity of wild-type HIV-1 strain to antiviral compounds (p24 antigen production in PHA-stimulated donor lymphocytes); format: cell-based; conditions: 50% inhibition of p24 antigen production, repeated experiment nos.
# Method: as §1
# [3] = isolate after four months of Co. I therapy, novel mutation Y181C
# [4] = isolate obtained two months before the therapy switch
structure (smiles),measurement,setting,value
"NC(=O)C(Nc1ccccc1[N+](=O)[O-])c1c(Cl)cccc1Cl (stereo not drawn) [Co.I, α-[(2-nitrophenyl)amino]-2,6-dichlorobenzeneacetamide]",sensitivity of the HIV-1 isolate (in words),[1]; [3],resistant
same,sensitivity of the HIV-1 isolate (in words),[1]; [4],sensitive
same,IC50,"[1]; patient isolate at time 120 days after start of Co. I therapy (400 mg t.i.d., po), Y181C",>10 µg/mL
same,IC50,[1]; patient isolate at time -60 days (two months before start of Co. I therapy),0.041 µg/mL and 0.07 µg/mL and 0.073 µg/mL and 0.054 µg/mL
"Cc1cn([C@H]2C[C@H](N=[N+]=[N-])[C@@H](CO)O2)c(=O)[nH]c1=O [zidovudine, 3'-azido-3'-deoxythymidine]",sensitivity of the HIV-1 isolate (in words),[1]; [3],acquired again significant sensitivity
same,sensitivity of the HIV-1 isolate (in words),[1]; [4],resistant
same,IC50,[2],0.001 µg/mL and 0.0008 µg/mL
same,IC50,"[2]; Human immunodeficiency virus 1, IIIB, Lymphocyte, read-out: IC50",0.0011 µg/mL

# Source: patent EP0684818B1, “METHOD OF REVERSING RESISTANCE OF HIV-1 STRAINS TO ZIDOVUDINE” (priority 1993, dated 1994)
